We go through 34 compounds from ChEMBL document CHEMBL3407363, “Vitamin D3 analogues that contain modified A- and seco-B-rings as hedgehog pathway inhibitors” (Eur J Med Chem, 2015).

Broadly, the IC50 is the concentration needed to halve the response being measured.

In data set [1] the target is T1, Vitamin D3 receptor (Mus musculus, UniProt P48281).
T1 sequence (P48281 whole entry): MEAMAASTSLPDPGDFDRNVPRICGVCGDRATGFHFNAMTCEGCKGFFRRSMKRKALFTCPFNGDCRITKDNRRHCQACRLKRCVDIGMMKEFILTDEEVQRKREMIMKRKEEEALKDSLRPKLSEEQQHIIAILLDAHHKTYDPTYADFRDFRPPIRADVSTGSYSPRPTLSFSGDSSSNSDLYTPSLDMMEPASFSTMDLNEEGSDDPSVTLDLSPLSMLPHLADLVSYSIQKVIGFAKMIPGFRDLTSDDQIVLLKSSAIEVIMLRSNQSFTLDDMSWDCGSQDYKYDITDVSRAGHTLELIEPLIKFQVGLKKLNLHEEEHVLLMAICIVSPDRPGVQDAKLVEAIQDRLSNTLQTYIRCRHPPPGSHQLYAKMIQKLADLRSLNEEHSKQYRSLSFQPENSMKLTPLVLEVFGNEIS
The data set is described as follows: Activation of VDR in mouse ASZ cells assessed as up-regulation of Cyp24A1 mRNA at 5 uM after 24 hrs by quantitative PCR analysis relative to control. It counts as ADME, cell-based.

Data set [2] deals with T2, Vitamin D3 receptor (Homo sapiens) (UniProt P11473).
T2 sequence (whole entry): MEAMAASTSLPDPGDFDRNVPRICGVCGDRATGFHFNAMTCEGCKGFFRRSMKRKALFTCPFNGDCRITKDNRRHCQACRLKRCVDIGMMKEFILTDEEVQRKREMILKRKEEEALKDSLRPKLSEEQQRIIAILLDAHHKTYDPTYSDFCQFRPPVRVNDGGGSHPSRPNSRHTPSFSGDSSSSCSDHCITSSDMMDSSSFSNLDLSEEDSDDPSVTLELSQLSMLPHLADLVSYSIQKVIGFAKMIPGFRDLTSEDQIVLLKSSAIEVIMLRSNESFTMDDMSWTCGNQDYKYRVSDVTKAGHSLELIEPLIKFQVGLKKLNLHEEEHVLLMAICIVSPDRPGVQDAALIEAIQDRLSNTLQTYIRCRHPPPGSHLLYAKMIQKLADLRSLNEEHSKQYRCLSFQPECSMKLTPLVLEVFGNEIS
As to the kind of experiment: Binding affinity to full length human VDR by fluorescent displacement assay.

Data set [3] can be described thus: Inhibition of hedgehog signaling in mouse C3H10T1/2 cells assessed as reduction in Gli1 mRNA level after 24 hrs by quantitative PCR analysis. It counts as cell-based. As to conditions: for inhibition: C3H 10T1/2; for IC50: C3H 10T1/2, 24 h.
Data set [4] is described as follows: Inhibition of hedgehog signaling in mouse C3H10T1/2 cells assessed as reduction in Gli1 mRNA level at 5 uM after 24 hrs by quantitative PCR analysis relative to control. It counts as cell-based. As to conditions: C3H 10T1/2, values are per cent of control.
The target of data set [5] is T1, Vitamin D3 receptor. As to the kind of experiment: Activation of VDR in mouse ASZ cells assessed as up-regulation of Cyp24A1 mRNA at 2.5 uM after 24 hrs by quantitative PCR analysis relative to control. It counts as ADME, cell-based.

`CC(C)CCC[C@@H](C)[C@H]1CC[C@H]2[C@@H](OC(=O)Cc3cccc(O)c3)CCC[C@]12C`: at Vitamin D3 receptor [1], the Activity was 3.5%. Also, in data set [2], the K is above 100 µM. For the same compound, in data set [3], the inhibition result was “Dose-dependent effect” and the IC50 is 0.79 µM. Moreover, the response, % of control in data set [4] turned out to be 1.8%.

For `CCOC(=O)/C=C1\CCC[C@]2(C)[C@@H]([C@H](C)CCCC(C)C)CC[C@@H]12`, the response, % of control in data set [4] was found to be 107%.

Turning to `CC(C)CCC[C@@H](C)[C@H]1CC[C@H]2C(=O)CCC[C@]12C`, the response, % of control in data set [4] came out at 66.1%.

With `CC(C)CCC[C@@H](C)[C@H]1CC=C2C(=O)CCC[C@@]21C`, the response, % of control in data set [4] worked out at 63.4%.

Turning to `CC(C)CCC[C@@H](C)[C@H]1CC[C@H]2[C@@H](OC(=O)c3cccc(O)c3)CCC[C@]12C`, the Activity at Vitamin D3 receptor [1] was 1.9%. In data set [2], this compound showed a K above 100 µM. For the same compound, in data set [3], the inhibition entry is “Dose-dependent effect” and the IC50 worked out at 0.74 µM. Also, in data set [4], the response, % of control came to 1.9%.

As for `CC(C)CCC[C@@H](C)[C@H]1CC[C@H]2[C@@H](OC(=O)/C=C/c3cccc(O)c3)CCC[C@]12C`, the response, % of control in data set [4] came out at 57.2%.

Take `CC(C)CCC[C@@H](C)[C@H]1CC[C@H]2[C@H](Nc3ccc(O)cc3)CCC[C@]12C`: at Vitamin D3 receptor [1], the Activity was determined as 3%. The compound further gave a K in data set [2] above 100 µM. In data set [3], the inhibition entry is “Dose-dependent effect” and the IC50 amounted to 0.32 µM. Further, the response, % of control in data set [4] was 1.3%.

With `CC(C)CCC[C@@H](C)[C@H]1CC[C@H]2[C@@H](OC(=O)CCc3cccc(O)c3)CCC[C@]12C`, the Activity at Vitamin D3 receptor [1] was found to be 7.6%. Besides, the K in data set [2] was above 100 µM. In addition, in data set [3], the inhibition result was “Dose-dependent effect” and the IC50 worked out at 2.6 µM. Further, in data set [4], the response, % of control worked out at 15.3%.

On to `CC(C)CCC[C@@H](C)[C@H]1CC=C2[C@H](O)CCC[C@@]21C`, for which the response, % of control in data set [4] stood at 90.1%.

For the compound `CC(C)CCC[C@@H](C)[C@H]1CC[C@H]2/C(=C/C(=O)Nc3ccccc3)CCC[C@]12C`, the response, % of control in data set [4] was determined as 41.7%.

As to `CC(C)CCC[C@@H](C)[C@H]1CC[C@H]2C(c3cccc(O)c3)=CCC[C@]12C`, the response, % of control in data set [4] turned out to be 37.2%.

`CC(C)CCC[C@@H](C)[C@H]1CC[C@H]2/C(=C/C(=O)Nc3cccc(O)c3)CCC[C@]12C`: the Activity at Vitamin D3 receptor [1] was 4.5%. For the same compound, the K in data set [2] is above 100 µM. In data set [3], the inhibition result was “Dose-dependent effect” and the IC50 was 1 µM. In addition, the response, % of control in data set [4] was 12.1%.

Take `CC(C)CCC[C@@H](C)[C@H]1CC[C@H]2[C@H](CO)CCC[C@]12C`: the response, % of control in data set [4] turned out to be 55.1%.

Regarding `CC(C)CCC[C@@H](C)[C@H]1CC[C@H]2[C@@H](Nc3cccc(O)c3)CCC[C@]12C`, the Activity at Vitamin D3 receptor [1] amounted to 1.8%. This compound also had a K in data set [2] above 100 µM. In data set [3], the inhibition entry is “Dose-dependent effect” and the IC50 was 1 µM. Also, in data set [4], the response, % of control stood at 11.6%.

For `CC(C)CCC[C@@H](C)[C@H]1CC[C@H]2[C@H](OC(=O)c3cccc(O)c3)CCC[C@]12C`, the Activity on Vitamin D3 receptor [1] was determined as 1.6%. In data set [2], this compound displayed a K above 100 µM. In addition, in data set [3], the inhibition result was “Dose-dependent effect” and the IC50 amounted to 3.9 µM. In addition, the response, % of control in data set [4] was determined as 30.6%.

On to `CC(C)CCC[C@@H](C)[C@H]1CC[C@H]2/C(=C/CO)CCC[C@]12C`, for which the response, % of control in data set [4] turned out to be 15.1%.

Consider `CC(C)CCC[C@@H](C)[C@H]1CC[C@H]2[C@@H](OC(=O)CCc3ccccc3O)CCC[C@]12C`, for which the response, % of control in data set [4] was 47.4%.

The compound `C=C1CC[C@H](O)C/C1=C/C=C1\CCC[C@]2(C)[C@@H]([C@H](C)CCCC(C)C)CC[C@@H]12` [CHOLECALCIFEROL] returned a K in data set [2] above 100 µM. Also, in data set [3], the inhibition entry is “Dose-dependent effect” and the 50% inhibitory concentration (IC50) came to 4.1 µM. The response, % of control in data set [4] came out at 35.7%. Further, on Vitamin D3 receptor [5], the Activity stood at 764%.

As to `CC(C)CCC[C@@H](C)[C@H]1CC[C@H]2/C(=C/C(=O)Nc3ccccc3O)CCC[C@]12C`, the Activity at Vitamin D3 receptor [1] is given as 14%. The compound also came in with a K in data set [2] above 100 µM. In addition, in data set [3], the inhibition entry was “Dose-dependent effect” and the 50% inhibitory concentration (IC50) is 1.5 µM. Also, the response, % of control in data set [4] was found to be 1.1%.

For the compound `CC(C)CCC[C@@H](C)[C@H]1CC[C@H]2[C@H](c3cccc(O)c3)CCC[C@]12C`, in data set [4], the response, % of control was 47.9%.

On to `CC(C)CCC[C@@H](C)[C@H]1CC[C@H]2[C@H](C(=O)c3cccc(O)c3)CCC[C@]12C`, for which, on Vitamin D3 receptor [1], the Activity is listed as 7.8%. In data set [2], the K was above 100 µM. Moreover, in data set [3], the inhibition entry is “Dose-dependent effect” and the IC50 was 1.8 µM. Moreover, in data set [4], the response, % of control was 11%.

`CC(C)CCC[C@@H](C)[C@H]1CC[C@H]2[C@H](O)CCC[C@]12C`: the response, % of control in data set [4] was determined as 74%.

For `CC(C)CCC[C@@H](C)[C@H]1CC[C@@H]2[C@@H](O)CCC[C@]12C`, the response, % of control in data set [4] worked out at 48.7%.

Take `CC(C)CCC[C@@H](C)[C@H]1CC[C@H]2[C@@H](Nc3ccccc3O)CCC[C@]12C`: the Activity at Vitamin D3 receptor [1] worked out at 4.4%. In data set [2], this compound yielded a K above 100 µM. Further, in data set [3], the inhibition result was “Dose-dependent effect” and the IC50 is 1.2 µM. Also, the response, % of control in data set [4] amounted to 2%.

For `CC(C)CCC[C@@H](C)[C@H]1CC[C@@H]2[C@]1(C)CCC[C@@]2(O)c1cccc(O)c1`, the response, % of control in data set [4] came to 39.5%.

As for `CC(C)CCC[C@@H](C)[C@H]1CC[C@H]2[C@@H](OC(=O)/C=C/c3ccc(O)cc3)CCC[C@]12C`, in data set [4], the response, % of control came out at 62.1%.

On to `CC(C)CCC[C@@H](C)[C@H]1CC[C@H]2/C(=C/C(=O)Nc3ccc(O)cc3)CCC[C@]12C`, for which the Activity on Vitamin D3 receptor [1] was 4.4%. Also, the K in data set [2] was above 100 µM. Further, in data set [3], the inhibition entry is “Dose-dependent effect” and the IC50 worked out at 1.2 µM. Moreover, the response, % of control in data set [4] amounted to 1.8%.

`CC(C)CCC[C@@H](C)[C@H]1CC[C@H]2[C@H](CCO)CCC[C@]12C`: the Activity on Vitamin D3 receptor [1] was 1.3%. The same compound registered a K in data set [2] above 100 µM. In data set [3], the inhibition entry is “Dose-dependent effect” and the IC50 was 2.4 µM. Also, the response, % of control in data set [4] worked out at 2.8%.

In the case of `CC(C)CCC[C@@H](C)[C@H]1CC[C@H]2[C@@H](NC(=O)c3cccc(O)c3)CCC[C@]12C`, the Activity on Vitamin D3 receptor [1] was found to be 1.8%. Besides, the K in data set [2] was above 100 µM. Further, in data set [3], the inhibition result was “Dose-dependent effect” and the IC50 is 0.98 µM. For the same compound, the response, % of control in data set [4] came to 2.5%.

As to `CC(C)CCC[C@@H](C)[C@H]1CC[C@H]2/C(=N/O)CCC[C@]12C`, the response, % of control in data set [4] worked out at 86.1%.

Consider `CC(C)CCC[C@@H](C)[C@H]1CC[C@H]2[C@@H](Nc3ccc(O)cc3)CCC[C@]12C`, for which the Activity at Vitamin D3 receptor [1] is 2.7%. Further, the K in data set [2] is above 100 µM. Moreover, in data set [3], the inhibition entry is “Dose-dependent effect” and the half-maximal inhibitory concentration (IC50) came to 0.4 µM. In addition, the response, % of control in data set [4] stood at 0.7%.

With `CC(C)CCC[C@@H](C)[C@H]1CC[C@H]2[C@@H](O)CCC[C@]12C`, in data set [4], the response, % of control was determined as 46.4%.

Take `CC(C)CCC[C@@H](C)[C@H]1CC[C@H]2[C@@H](OC(=O)CCc3ccc(O)cc3)CCC[C@]12C`: the response, % of control in data set [4] came to 20.1%.

For the compound `CC(C)CCC[C@@H](C)[C@H]1CC[C@H]2[C@@H](OC(=O)/C=C/c3ccccc3O)CCC[C@]12C`, the response, % of control in data set [4] came out at 94.2%.
